Usually inhibition stands for the relative decrease from the control value, in per cent.

Several values for one entry are separate records, joined by “and”; a condition that tells them apart may be missing. Equal entries are not always repeated. Where two headings read alike, the source gives them in different places.

This is an account of results in article PMC8292346, “Dysfunction of the key ferroptosis-surveilling systems hypersensitizes mice to tubular necrosis during acute kidney injury” (Nature Communications, 2021).

Data set [1] can be described thus: Inhibited co-autoxidation of cumene and STY-BODIPY (radical-trapping antioxidant activity). Conditions: AIBN-initiated; even at 5-fold higher concentration than PMC.
Data set [2] in a line: Stability in human plasma. Conditions: 1 µM, 37 °C. The data set is classed as in vitro ADME. Here is the method: Plasma stability is defined as the percentage of parent compound remaining in plasma over the time. Here, incubations were carried out in 5 aliquots of 70 µl each (one for each time point), in duplicates. […] The percentage of the test compounds remaining after incubation in plasma and their half-lives (T1/2) was calculated.

For data set [3] the following is noted: both, microsomes, 2 µM, pH 7.4.
The target of another data set is A2A(h) (Homo sapiens, UniProt P29274). As to the kind of experiment: Off-target radioligand binding screen. Conditions: read-out: A2A(h) (#): inhibition of radioligand binding.
For a further data set, the target named is α2A(h) (Homo sapiens, UniProt P08913). As to the kind of experiment: Off-target radioligand binding screen. The following applies: read-out: α2A(h) ($): inhibition of radioligand binding.
For another data set, the target named is CB2(h) (Homo sapiens, UniProt P34972). The data set is described as follows: Off-target radioligand binding screen. The following applies: read-out: CB2(h) (#): inhibition of radioligand binding.
CB2(h), sequence (P34972 whole entry): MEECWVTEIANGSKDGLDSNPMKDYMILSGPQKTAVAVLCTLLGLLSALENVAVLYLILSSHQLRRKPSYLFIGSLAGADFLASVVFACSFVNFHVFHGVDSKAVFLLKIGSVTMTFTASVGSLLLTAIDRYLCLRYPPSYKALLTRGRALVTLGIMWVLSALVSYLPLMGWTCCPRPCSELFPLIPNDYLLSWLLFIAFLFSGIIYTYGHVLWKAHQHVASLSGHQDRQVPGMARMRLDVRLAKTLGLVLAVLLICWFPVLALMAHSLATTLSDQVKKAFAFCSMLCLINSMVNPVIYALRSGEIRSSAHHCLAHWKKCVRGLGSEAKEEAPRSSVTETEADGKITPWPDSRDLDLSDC
Another data set deals with CCK1 (CCKA) (h) (Homo sapiens, UniProt P32238). The data set is described as follows: Off-target radioligand binding screen. The following applies: read-out: CCK1 (CCKA) (h) (#): inhibition of radioligand binding.
CCK1 (CCKA) (h), sequence (P32238 whole entry): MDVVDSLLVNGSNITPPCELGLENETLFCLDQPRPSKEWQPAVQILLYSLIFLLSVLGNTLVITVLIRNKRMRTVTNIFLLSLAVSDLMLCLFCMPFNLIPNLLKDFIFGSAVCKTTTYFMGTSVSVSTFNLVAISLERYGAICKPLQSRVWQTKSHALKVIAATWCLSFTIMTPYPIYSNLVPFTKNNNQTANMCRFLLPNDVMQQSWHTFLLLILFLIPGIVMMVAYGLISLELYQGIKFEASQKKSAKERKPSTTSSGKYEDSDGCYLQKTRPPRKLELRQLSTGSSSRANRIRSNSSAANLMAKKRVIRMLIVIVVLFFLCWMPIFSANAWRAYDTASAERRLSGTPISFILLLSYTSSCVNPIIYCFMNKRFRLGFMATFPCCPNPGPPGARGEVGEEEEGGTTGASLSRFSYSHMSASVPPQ
The target in another data set is H1(h) (Homo sapiens, UniProt P35367). As to the kind of experiment: Off-target radioligand binding screen. Conditions: read-out: H1(h) ($): inhibition of radioligand binding.
A further data set has as its target M1(h) (Homo sapiens, UniProt P11229). As to the kind of experiment: Off-target radioligand binding screen. The following applies: read-out: M1(h) ($): inhibition of radioligand binding.
The next data set concerns the target M3(h) (Homo sapiens, UniProt P20309). The data set is described as follows: Off-target radioligand binding screen. The following applies: read-out: M3(h) ($): inhibition of radioligand binding.
Another data set deals with N neuronal α4β2 (h) (Homo sapiens, UniProt P17787+P43681). As to the kind of experiment: Off-target radioligand binding screen. The following applies: read-out: N neuronal α4β2 (h) (#): inhibition of radioligand binding.
N neuronal α4β2 (h), sequence (P43681 29-627 limits assumed): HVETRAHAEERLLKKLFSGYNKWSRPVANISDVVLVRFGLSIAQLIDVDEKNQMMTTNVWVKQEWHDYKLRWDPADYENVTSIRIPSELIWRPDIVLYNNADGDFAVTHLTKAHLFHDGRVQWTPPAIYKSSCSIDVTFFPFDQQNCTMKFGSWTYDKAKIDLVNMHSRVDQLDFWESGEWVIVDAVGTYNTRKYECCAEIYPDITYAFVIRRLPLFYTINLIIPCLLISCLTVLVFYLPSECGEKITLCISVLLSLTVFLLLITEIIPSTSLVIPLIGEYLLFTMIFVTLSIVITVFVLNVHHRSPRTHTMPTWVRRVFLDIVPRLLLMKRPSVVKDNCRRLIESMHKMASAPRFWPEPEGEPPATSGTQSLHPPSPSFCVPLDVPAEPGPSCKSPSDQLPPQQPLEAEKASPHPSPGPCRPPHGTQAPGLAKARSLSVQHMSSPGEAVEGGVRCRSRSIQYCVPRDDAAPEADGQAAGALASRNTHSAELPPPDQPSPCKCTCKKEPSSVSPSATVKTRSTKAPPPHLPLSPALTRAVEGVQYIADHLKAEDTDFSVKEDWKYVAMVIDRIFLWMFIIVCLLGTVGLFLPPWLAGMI
N neuronal α4β2 (h), sequence (P17787 26-502): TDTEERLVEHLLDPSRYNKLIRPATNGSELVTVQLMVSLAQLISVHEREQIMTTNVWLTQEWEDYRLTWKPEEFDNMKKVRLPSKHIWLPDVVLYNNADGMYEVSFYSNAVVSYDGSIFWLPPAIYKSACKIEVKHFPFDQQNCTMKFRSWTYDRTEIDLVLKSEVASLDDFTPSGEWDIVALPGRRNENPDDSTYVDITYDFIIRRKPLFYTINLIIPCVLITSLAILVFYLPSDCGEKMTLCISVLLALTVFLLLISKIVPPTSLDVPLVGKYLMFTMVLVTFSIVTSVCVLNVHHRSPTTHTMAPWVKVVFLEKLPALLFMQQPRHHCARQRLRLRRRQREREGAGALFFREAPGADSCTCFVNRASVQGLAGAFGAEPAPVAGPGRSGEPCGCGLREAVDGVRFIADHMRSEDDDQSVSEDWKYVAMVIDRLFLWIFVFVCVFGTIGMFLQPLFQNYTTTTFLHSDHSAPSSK
Another data set addresses δ (DOP) (h) (Homo sapiens, UniProt P41143). As to the kind of experiment: Off-target radioligand binding screen. The following applies: read-out: δ (DOP) (h) (#): inhibition of radioligand binding.
Another data set deals with kappa (h) (KOP) (Homo sapiens, UniProt P41145). As to the kind of experiment: Off-target radioligand binding screen. The following applies: read-out: kappa (h) (KOP) (#): inhibition of radioligand binding.
For another data set, the target named is μ (MOP) (h) (Homo sapiens, UniProt P35372). As to the kind of experiment: Off-target radioligand binding screen. The following applies: read-out: μ (MOP) (h) (#): inhibition of radioligand binding.
μ (MOP) (h), sequence (P35372 whole entry): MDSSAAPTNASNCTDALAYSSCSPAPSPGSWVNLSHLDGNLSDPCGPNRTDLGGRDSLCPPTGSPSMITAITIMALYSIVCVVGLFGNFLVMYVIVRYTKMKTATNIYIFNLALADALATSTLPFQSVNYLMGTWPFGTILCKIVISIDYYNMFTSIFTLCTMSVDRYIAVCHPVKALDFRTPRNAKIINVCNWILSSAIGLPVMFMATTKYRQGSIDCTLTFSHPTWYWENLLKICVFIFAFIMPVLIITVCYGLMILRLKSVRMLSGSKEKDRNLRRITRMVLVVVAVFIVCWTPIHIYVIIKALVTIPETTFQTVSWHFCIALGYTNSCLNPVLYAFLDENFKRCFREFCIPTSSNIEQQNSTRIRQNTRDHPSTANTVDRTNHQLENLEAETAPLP
The next data set deals with 5-HT1A(h) (Homo sapiens, UniProt P08908). As to the kind of experiment: Off-target radioligand binding screen. Conditions: read-out: 5-HT1A(h) (#): inhibition of radioligand binding.
The next data set addresses 5-HT2A(h) (Homo sapiens, UniProt P28223). As to the kind of experiment: Off-target radioligand binding screen. Conditions: read-out: 5-HT2A(h) (#): inhibition of radioligand binding.
The next data set deals with 5-HT2B(h) (Homo sapiens, UniProt P41595). As to the kind of experiment: Off-target radioligand binding screen. The following applies: read-out: 5-HT2B(h) (#): inhibition of radioligand binding.
The next data set deals with 5-HT3(h) (Homo sapiens, UniProt P46098). The data set is described as follows: Off-target radioligand binding screen. Conditions: read-out: 5-HT3(h) ($): inhibition of radioligand binding.
In a further data set the test system is Na+ channel (site 2). The data set is described as follows: Off-target radioligand binding screen. The following applies: Nec-1f 10 µM.
Data set [4] deals with norepinephrine transporter(h) (Homo sapiens, UniProt P23975). As to the kind of experiment: Off-target radioligand binding screen. Conditions: read-out: norepinephrine transporter(h) ($): inhibition of radioligand binding.
norepinephrine transporter(h), sequence (P23975 whole entry): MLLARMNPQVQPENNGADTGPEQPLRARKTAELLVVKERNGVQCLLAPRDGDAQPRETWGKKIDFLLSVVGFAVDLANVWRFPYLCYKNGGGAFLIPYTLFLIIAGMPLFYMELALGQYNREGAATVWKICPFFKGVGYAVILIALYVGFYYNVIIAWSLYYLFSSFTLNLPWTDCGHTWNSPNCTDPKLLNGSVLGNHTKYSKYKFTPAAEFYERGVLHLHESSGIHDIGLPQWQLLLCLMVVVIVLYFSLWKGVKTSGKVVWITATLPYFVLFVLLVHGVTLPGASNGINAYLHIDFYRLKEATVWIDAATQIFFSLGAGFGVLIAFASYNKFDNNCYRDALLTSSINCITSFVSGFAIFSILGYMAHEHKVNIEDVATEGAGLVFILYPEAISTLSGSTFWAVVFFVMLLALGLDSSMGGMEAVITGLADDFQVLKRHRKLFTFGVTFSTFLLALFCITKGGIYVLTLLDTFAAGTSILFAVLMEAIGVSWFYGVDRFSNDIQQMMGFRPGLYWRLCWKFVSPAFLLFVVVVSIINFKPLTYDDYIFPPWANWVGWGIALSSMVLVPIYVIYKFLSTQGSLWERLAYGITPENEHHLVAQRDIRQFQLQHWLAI
The target of a further data set is dopamine transporter(h) (Homo sapiens, UniProt Q01959). As to the kind of experiment: Off-target radioligand binding screen. Conditions: read-out: dopamine transporter(h) ($): inhibition of radioligand binding.
dopamine transporter(h), sequence (Q01959 whole entry): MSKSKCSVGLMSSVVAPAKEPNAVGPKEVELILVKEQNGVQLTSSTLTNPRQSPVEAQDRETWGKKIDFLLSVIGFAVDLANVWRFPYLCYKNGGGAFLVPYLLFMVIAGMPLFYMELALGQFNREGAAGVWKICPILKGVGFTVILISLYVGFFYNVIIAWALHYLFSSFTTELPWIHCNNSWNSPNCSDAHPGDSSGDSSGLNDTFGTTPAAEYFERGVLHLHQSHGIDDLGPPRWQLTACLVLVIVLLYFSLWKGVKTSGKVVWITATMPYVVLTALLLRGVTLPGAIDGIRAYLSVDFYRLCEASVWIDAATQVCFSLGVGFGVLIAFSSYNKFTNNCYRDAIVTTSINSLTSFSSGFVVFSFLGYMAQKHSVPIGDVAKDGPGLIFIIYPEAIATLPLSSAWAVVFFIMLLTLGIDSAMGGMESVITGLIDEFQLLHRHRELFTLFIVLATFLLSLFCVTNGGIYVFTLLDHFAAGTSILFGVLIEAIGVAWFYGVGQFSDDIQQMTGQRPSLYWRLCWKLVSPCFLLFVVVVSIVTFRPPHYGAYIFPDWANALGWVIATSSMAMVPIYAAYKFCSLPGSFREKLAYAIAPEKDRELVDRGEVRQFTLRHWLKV
The target of a further data set is 5-HT transporter (h) (Homo sapiens, UniProt P31645). As to the kind of experiment: Off-target radioligand binding screen. Conditions: read-out: 5-HT transporter (h) ($): inhibition of radioligand binding.
5-HT transporter (h), sequence (P31645 whole entry): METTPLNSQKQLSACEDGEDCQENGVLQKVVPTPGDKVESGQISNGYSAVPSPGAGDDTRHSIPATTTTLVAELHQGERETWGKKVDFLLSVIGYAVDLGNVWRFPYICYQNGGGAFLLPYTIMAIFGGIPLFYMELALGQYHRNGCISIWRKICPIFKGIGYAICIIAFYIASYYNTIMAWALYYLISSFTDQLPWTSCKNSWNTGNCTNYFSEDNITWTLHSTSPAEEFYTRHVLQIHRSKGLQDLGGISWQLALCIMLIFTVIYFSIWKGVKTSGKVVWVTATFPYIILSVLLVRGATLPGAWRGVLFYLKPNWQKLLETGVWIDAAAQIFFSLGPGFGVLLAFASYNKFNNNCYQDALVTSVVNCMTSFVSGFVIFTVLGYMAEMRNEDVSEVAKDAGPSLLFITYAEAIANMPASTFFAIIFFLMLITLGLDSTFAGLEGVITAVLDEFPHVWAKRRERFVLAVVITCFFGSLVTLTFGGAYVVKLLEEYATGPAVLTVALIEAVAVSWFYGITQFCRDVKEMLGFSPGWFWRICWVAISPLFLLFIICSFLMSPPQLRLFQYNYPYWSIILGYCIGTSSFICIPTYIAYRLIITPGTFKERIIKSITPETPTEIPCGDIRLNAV
Another data set concerns NIH3T3 cells. As to the kind of experiment: TZ-induced necroptosis, 7-AAD/annexin V flow cytometry. The format is cell-based, murine. Conditions: NIH3T3, TZ 16 h. How it is done: To induce necroptosis in a human cell line, HT29 cells were stimulated at the indicated time points with 20 ng/ml human TNFα (Biolegend), 1 μM SMAC-mimetics (Birinapant, Chemietek), and 20 μM zVAD-fmk (Selleckchem, herein referred to as zVAD). For the induction of necroptosis in NIH3T3 cells, cells were incubated with 20 ng/ml TNF-α and 20 μM zVAD for indicated time points. […] Cells were seeded in six-well plates or petri dishes. […] After indicated time points, cells were collected and prepared for flow cytometry, immunoblotting, and/or LDH release assays.
Cells were harvested and the pellets were washed twice in PBS and stained with 5 μl of 7-AAD (BD Biosciences) and 5 μl of annexin-V-FITC (BD Biosciences) added to 100 μl annexin-V binding buffer (BD Biosciences). After 15 min, cells were recorded on the LSRII with the FACS Diva 6.1.1 software (BD Biosciences) and subsequently analyzed with the FlowJo v10 software (Tree Star).
A general note: In flow cytometry, cells or beads pass a laser one at a time.

M1(h), sequence (P11229 whole entry): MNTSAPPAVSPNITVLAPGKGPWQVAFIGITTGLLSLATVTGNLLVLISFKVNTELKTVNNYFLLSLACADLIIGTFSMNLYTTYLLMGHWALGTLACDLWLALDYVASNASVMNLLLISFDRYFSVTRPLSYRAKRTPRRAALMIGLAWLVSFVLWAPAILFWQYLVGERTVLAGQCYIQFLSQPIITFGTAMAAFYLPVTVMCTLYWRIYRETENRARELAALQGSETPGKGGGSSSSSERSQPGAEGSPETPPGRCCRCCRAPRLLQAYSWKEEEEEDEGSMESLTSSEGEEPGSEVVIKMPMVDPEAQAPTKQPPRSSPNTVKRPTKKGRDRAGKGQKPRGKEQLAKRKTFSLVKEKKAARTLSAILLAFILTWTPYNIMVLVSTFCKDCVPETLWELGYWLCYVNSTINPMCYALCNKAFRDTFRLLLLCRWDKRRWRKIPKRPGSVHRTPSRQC
δ (DOP) (h), sequence (P41143 whole entry): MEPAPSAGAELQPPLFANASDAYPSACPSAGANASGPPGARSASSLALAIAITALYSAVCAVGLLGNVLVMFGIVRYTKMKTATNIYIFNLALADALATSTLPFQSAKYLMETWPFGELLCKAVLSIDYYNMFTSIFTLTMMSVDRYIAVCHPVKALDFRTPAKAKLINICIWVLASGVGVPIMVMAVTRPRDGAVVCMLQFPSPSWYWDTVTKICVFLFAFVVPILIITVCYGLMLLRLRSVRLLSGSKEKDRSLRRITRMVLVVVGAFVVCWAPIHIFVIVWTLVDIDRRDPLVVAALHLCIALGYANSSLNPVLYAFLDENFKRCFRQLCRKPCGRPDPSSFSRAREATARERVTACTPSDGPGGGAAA

Regarding `CN1C(=O)C(Cc2c[nH]c3c(Cl)cccc23)NC1=S` (stereo not shown) [Nec-1f], the “Radical-trapping activity in cumene/STY-BODIPY co-autoxidation” value in data set [1] is “no activity”. In addition, the “Human plasma stability, parent compound remaining” value is reported as 100% in [2] (0 min); 97% in data set [2] (20 min); 93% in data set [2] (40 min); 89% in data set [2] (60 min); 82% in data set [2] (120 min). Also, the “Human microsomal stability, parent compound remaining” value in data set [3] (0 h) came to 100%; in data set [3] (7 min), 80%; in [3] (0.25 h), 65%; in data set [3] (25 min), 48%; in data set [3] (40 min) it was 34%. Also, the inhibition at 10 µM on A2A(h) is -0.3%; on α2A(h), -2%; at CB2(h) it was -12.8%; on CCK1 (CCKA) (h), 28.3%; at H1(h) it was 9.3%; on M1(h) it was -7.3%. For the same compound, the inhibition at 10 µM at M3(h) was -4.9%; at N neuronal α4β2 (h), 3.6%; on δ (DOP) (h), 2.8%; at kappa (h) (KOP) it was 16%; on μ (MOP) (h), 15.8%; at 5-HT1A(h), 9.1%. For the same compound, the inhibition at 10 µM was -2.8% at 5-HT2A(h); 16.7% at 5-HT2B(h); 10.4% at 5-HT3(h); 7.3% in data set [4]; 34.3% at dopamine transporter(h); -5.9% at 5-HT transporter (h). Also, the “Na+ channel (site 2) ($): inhibition of radioligand binding” value in the data set with Na+ channel (site 2) is on record as -14.5%.
For `CCOC(=O)c1ccc(NC2CCCCC2)c(N)c1` [Fer-1, ferrostatin-1], in the data set on NIH3T3 cells, the “7-AAD/annexin V flow cytometry, source data of bar graph Fig2i” value was 7.78% and 9.49% and 6.87% and 10.1%.
